Measurements taken from PMC7278553, “Blocking interaction between SHP2 and PD‐1 denotes a novel opportunity for developing PD‐1 inhibitors” (EMBO Molecular Medicine, 2020).

Target: T1, SHP2 (Homo sapiens, UniProt Q06124)
T1 construct: gene PTPN11; recombinant hSHP2-FC (R&D Systems, 1894-SH-100)
T1 sequence (Q06124 2-593): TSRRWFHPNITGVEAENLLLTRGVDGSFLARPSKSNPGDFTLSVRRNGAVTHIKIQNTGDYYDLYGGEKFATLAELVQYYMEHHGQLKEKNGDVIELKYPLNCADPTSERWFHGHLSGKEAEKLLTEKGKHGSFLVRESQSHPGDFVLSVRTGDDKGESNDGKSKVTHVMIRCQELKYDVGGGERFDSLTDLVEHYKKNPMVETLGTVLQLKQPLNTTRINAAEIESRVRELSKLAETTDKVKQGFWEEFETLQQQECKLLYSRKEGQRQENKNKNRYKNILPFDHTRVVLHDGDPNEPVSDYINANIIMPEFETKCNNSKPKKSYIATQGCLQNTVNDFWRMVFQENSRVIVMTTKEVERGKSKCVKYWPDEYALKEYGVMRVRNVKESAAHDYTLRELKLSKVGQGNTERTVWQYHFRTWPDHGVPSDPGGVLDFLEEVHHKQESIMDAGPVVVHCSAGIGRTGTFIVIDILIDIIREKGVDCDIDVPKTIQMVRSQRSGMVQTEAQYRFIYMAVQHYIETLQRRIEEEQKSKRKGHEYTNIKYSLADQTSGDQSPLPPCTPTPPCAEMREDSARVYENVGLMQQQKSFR
T1 sequence (Q15116 235-264 partner): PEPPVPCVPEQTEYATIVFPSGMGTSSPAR
Assay: ELISA: MB blocks binding of purified recombinant SHP2-Fc to coated phospho-ITSM PD-1 peptide; supported by co-IP and split-luciferase complementation in cells
Format: biochemical

Compound: CN(C)c1ccc2nc3ccc(N(C)C)cc3[s+]c2c1 [MB, 3,7‐bis(dimethylamino)‐5‐phenothiazinium chloride]
- ELISA: MB blocks binding of purified recombinant SHP2-Fc to coated phospho-ITSM: MB dose‐dependently blocked the binding of SHP2 protein to coated Pep‐ITSM‐p248Y, unequivocally showing that MB directly blocked interaction
